According to patent publication US8962003B2, “Insect behaviour modifying compounds” (The New Zealand Institute for Plant and Food Research …, priority 2003, dated 2015):

Legend:
[1] = tested on: Frankliniella occidentalis; assay: Y-tube olfactometer bioassay; type: in vivo; details: for Behaviour-modifying activity towards Frankliniella occidentalis (in words): text statements (Table 2); for MAC (%) = Minimum Active Concentration to elicit a response from thrips (P < 0.05): 1 µl undiluted or diluted in hexane; for % Response: percentage of thrips to walk up odour-laden arm: same cell prints a '(t value)' in brackets
Procedure: The thrips behaviour-modifying activity of a compound may be evaluated in a glass Y-tube olfactometer following the method described by de Kogel et al. (de Kogel, W. J., Koschier, E. H. and Visser, J. H. Proc. Exper. & Appl. Entomol., N. E. V. Amsterdam, (1999) 10, 131-135.) and Koschier et al. (Koschier, E. H., De Kogel, W. J. and Visser, J. H. (2000) Jounrnal of Chemical Ecology, 26, 2643-2655).
The olfactory behaviour of thrips toward volatile compounds was evaluated in a glass Y-tube olfactometer following the method described by de Kogel et al. (de Kogel, W. J., Koschier, E. H. and Visser, J. H. Proc. Exper. & Appl. Entomol., N. E. V. Amsterdam, (1999) 10, 131-135.) and Koschler et al. (Koschier, E. H., De Kogel, W. J. and Visser, J. H. (2000) Journal of Chemical Ecology, 26, 2643-2655.). The Y-tube has two branching arms at an angle of 45° leading into a single tube, all 60 mm long, with an internal diameter of 5 mm. The arms of the Y-tube were connected to glass Wheaton Micro Kit® adapters that were in turn attached to 4 ml glass vials each containing a 1 cm^2 piece of filter paper (Whatman No. 1). The Y-tube and Wheaton apparatus were placed in a grey-box (to prevent external stimuli influencing thrips' behaviour), located in a darkened, air-conditioned room (22±3° C.). The Y-tube was placed at an inclining position of 25° between the Y-tube and horizontal plane and illuminated from above by a halogen lamp (780 lux). One microliter of the volatile compounds, either undiluted or diluted in hexane (95%, Pronalys AR), was applied to filter paper in one vial, while 1 μl of hexane was applied to filter paper held in the second vial. Air was drawn through activated charcoal before entering the Wheaton apparatus and Y-tube using a suction pump (AR Harris Co. Ltd, Christchurch) producing an airflow of 5 cm/s through each arm and 10 cm/s at the base of the Y-tube. Air was drawn through for 30 min before introducing the first thrips. Connections between the activated charcoal, Wheaton apparatus, Y-tube and suction pump consisted of silicone tubing.
An individual female Frankliniella occidentalis thrips of unknown age, that had been starved overnight, was released into the Y-tube using a small aspirator. The aspirator was made by placing a 1 ml pipette tip over the end of silicone tubing (5 mm diameter) the end of which was covered with fine mesh; the pipette tip was cut so it projected 5 mm beyond the end of the silicone tubing. A thrips was sucked up into the pipette tip, which was then placed at the base of the Y-tube. Most thrips walked up into the Y-tube within a few seconds, at which time the silicone air suction tubing was reconnected to the glass Y. The choice between clean or odour laden airflow was recorded when the thrips reached the far end of one arm and only those thrips that made the choice within 3 min were recorded. After every 5 thrips the Y-tube and Wheaton apparatus were rotated […] to avoid position effects. After 25 choices were recorded, the Y-tube and Wheaton apparatus were thoroughly cleaned with acetone (99.5%, BDH) and allowed to dry before repeating the experiment. Each compound and dilution was replicated 3 times.

[2] = tested on: Thrips obscuratus; assay: Field trials with baited water traps; type: in vivo; details: for Average ratio of female thrips caught relative to water traps (95% CI): female Thrips obscuratus, field water traps, 1 ml compound, 24 or 48 h, * = P < 0.05 vs control trap, brackets = backtransformed 95% CI
Text: (§1) Water traps were placed out into a field comprising several species of grasses, white clover (Trifolium repens L.) and several weed species (≈100 mm in height). Grass and cereal fields surrounded the field trial area on three sides and poplar (Poplar nigra L.) trees on the other, on the Canterbury Agricultural Research Centre campus. Each field trial consisted of five replicates of five treatments including a water control, positive control compound (ethyl nicotinate, ethyl isonicotinate, or benzaldehyde, Table 1) and three test compounds set out in the field in a grid (10×10 m) using a Latin square design with the trial area at least 100 m from the field boundary/shelter belt. White plastic containers (2 L capacity, 16×16×8.5 cm) containing approximately 1.7 L water, 0.4 ml of formalin (to prevent fungal growth) and 0.08 ml tween were placed above the crop canopy on inverted white (2 L capacity, 16×16×8.5 cm) or black plastic containers (24 cm diameter, 13 cm tall). For each treatment, 1 ml of a compound or water was added to a glass vial (12×32 mm screw thread vial) containing a 4.5 cm^2 piece of rolled filter paper (Whatman No. 1) that projected 1 cm above the top of the vial, creating a wick. The glass vial was suspended above the water in the centre of the trap using wire (0.5 mm diameter). The vials were removed after 24 or 48 h and the containers were sealed for transport to a laboratory. The contents from a water trap were poured through a sieve (250 μm mesh) and all insects were washed into a 50 ml Schott bottle within 24 h of collecting them from the field. All thrips were pipetted from each water trap sample and counted. Thrips were mounted on to slides using polyvinyl alcohol glue (1 part polyvinyl alchol: 4 parts water, 1 part lactic acid: 1.25 parts phenyl) from each trap using the following subsample method: less than 50 thrips, all thrips were mounted on to a slide; 50 to 100 thrips, a subsample of 25 thrips were mounted on to a slide; more than 100 thrips, a subsample of 50 thrips were mounted on to a slide. The slides were examined under 100× magnification using a compound microscope to identify thrips species. Subsampled thrips were sexed and identified to species according to Mound and Walker (Mound, L. A. and Walker, A. K. 1982. Terebrantia (Insecta: Thysanoptera). Fauna of New Zealand No. 1.). The mean number of each species for each treatment was calculated by multiplying the proportion of each species within a subsample with the total number of thrips counted in each water trap.

[3] = tested on: Thrips tabaci; assay: Field trials with baited water traps; type: in vivo; details: field trials (Table 1)
Text: as §1

[4] = tested on: Frankliniella occidentalis; details: MacDonald et al. 2002; cited from earlier work
[5] = tested on: Frankliniella occidentalis; assay: Greenhouse trials with water traps or yellow sticky traps; type: in vivo; details: 24 h, capsicum greenhouse, t-value in brackets in same cell
Text: Greenhouse trials were undertaken using water traps similar to those used in the field trials (Example 2), or yellow sticky traps (Veg-Gro Supplies Ltd, Auckland) to examine the response of thrips to volatile compounds. The greenhouse, located in Auckland, is ≈88×200 m, constructed of glass, and is used to grow capsicum (Capsicum annuum var. Special, Fiesta, Boogie and Stirit). Water traps were placed 20 to 24 m apart within a row and 24 m apart between rows. There were 6 baited water traps for each compound tested and 6 water-only traps randomly positioned in a 6×2 grid in the greenhouse. Traps were positioned just above the crop canopy. Water traps (2 L containers, 16×16×8.5 cm) were assembled as described in Example 2 and left in the greenhouse for 24 h, after which time the containers were sealed for transport to a laboratory. Insects from each water trap were transferred to 5 ml glass tubes containing 75% ethanol within 24 h of collecting them from the greenhouse. Catches from each treatment were analysed under a stereomicroscope (100×) and the proportion of Frankliniella occidentalis was determined.
Yellow sticky traps (24.4×20 cm) were treated with a compound or water using a 30 ml spray mist dripulator (Arthur Holmes, Wellington) held 10 cm away from the sticky trap. Four sprays were applied to each side, coating the sticky trap in approximately 1 ml of water or compound. Sticky traps sprayed with the same treatment were separated using black metal foldback clips (19 mm, Celco), suspended within a cardboard box (29.5×22.3×30.2 cm), which was in turn sealed within a plastic bag for transport to the greenhouse. Traps were suspended in the greenhouse just above the crop canopy within 3 h after spraying, using the same layout as for the water traps (20 to 24 m apart within a row, 24 m between rows, in a 6×2 grid). After 24 h the traps were collected by wrapping each trap in plastic wrap for transport to the laboratory. The total number of thrips on the traps were counted using 10× magnification. Thrips were removed from the sticky traps using De-Solv-it® and Johnsons baby oil®. A subsample from each treatment was further analysed under a stereomicroscope (100×) and the proportion of Frankliniella occidentalis was determined.

[6] = female Frankliniella occidentalis
[7] = Water trap, around 66% of thrips caught were Frankliniella occidentalis
[8] = Yellow sticky trap, about 1 ml sprayed, >95% of thrips caught were Frankliniella occidentalis
[9] = female Frankliniella occidentalis, Y-tube

C=C(C)CCOC(=O)c1ccncc1 [isopentenyl isonicotinate]
Behaviour-modifying activity towards Frankliniella occidentalis (in words) [1]: not found to be significantly attractive or repulsive

c1cc(C2OCCO2)ccn1 [Pyridine, 4-(1,3-dioxalan-2-yl), 4-(1,3-Dioxolan-2-yl)pyridine]
Average ratio of female thrips caught relative to water traps (95% CI) [2]: 16.6 (0.3, 827.2) | MAC (%) = Minimum Active Concentration to elicit a response from thrips (P < 0.05) [1, 6]: 1%

CCCCCCOC(=O)c1ccncc1 [hexyl isonicotinate]
Attractancy to Thrips obscuratus (in words) [2]: not found to be significantly attractive | Attractancy to Thrips tabaci (in words) [3]: not found to be significantly attractive

CCCCCCCCCCOC(C)=O [Decyl acetate]
Repellant activity towards Frankliniella occidentalis (literature, alarm pheromones) [4]: repellant activity

CCOC(=O)c1ccncc1 [Ethyl isonicotinate]
Average ratio of thrips caught relative to water treated traps [5, 7]: 2.2 (2.8) | Average ratio of thrips caught relative to water treated traps [5, 8]: 2.6 (3.9) | MAC (%) = Minimum Active Concentration to elicit a response from thrips (P < 0.05) [1, 6]: 0.001% | % Response: percentage of thrips to walk up odour-laden arm [1, 6]: 60.0 (0.043) %

CCC(=O)c1ccncc1 [Ethyl 4-pyridyl ketone]
Attractancy to Thrips tabaci (in words) [3]: attractants | MAC (%) = Minimum Active Concentration to elicit a response from thrips (P < 0.05) [1, 6]: 1% | % Response: percentage of thrips to walk up odour-laden arm [1, 6]: 68.0 (0.001) %

CCOC(=O)c1ccnc(Cl)c1 [Ethyl 2-chloro-isonicotinate]
Average ratio of thrips caught relative to water treated traps [5, 8]: 1.8 (2.8) | MAC (%) = Minimum Active Concentration to elicit a response from thrips (P < 0.05) [1, 6]: 0.0001% | % Response: percentage of thrips to walk up odour-laden arm [1, 6]: 65.3 (0.005) % | Behaviour-modifying activity towards Frankliniella occidentalis (in words) [1]: strong attractant

CC(C)OC(=O)c1ccncc1 [Isopropyl isonicotinate]
MAC (%) = Minimum Active Concentration to elicit a response from thrips (P < 0.05) [1, 6]: 1% | % Response: percentage of thrips to walk up odour-laden arm [1, 6]: 66.7 (0.002) %

CC(C)N(C(=O)c1ccncc1)C(C)C [Di-iso-Propyl isonicotinate, diisopropyl isonicotinamide]
MAC (%) = Minimum Active Concentration to elicit a response from thrips (P < 0.05) [1, 6]: <100% | % Response: percentage of thrips to walk up odour-laden arm [1, 6]: 81.3 (<0.001) % | Behaviour-modifying activity towards Frankliniella occidentalis (in words) [1]: attractant

CC(=O)Sc1ccncc1 [4-Pyridyl thioacetate]
Comment (repellant) [1, 9]: Repellant | MAC (%) = Minimum Active Concentration to elicit a response from thrips (P < 0.05) [1, 6]: <100% | % Response: percentage of thrips to walk up odour-laden arm [1, 6]: 26.7 (<0.001) % | Behaviour-modifying activity towards Frankliniella occidentalis (in words) [1]: thrips-repellant activity

COC(=O)c1ccncc1 [Methyl isonicotinate]
Average ratio of thrips caught relative to water treated traps [5, 7]: 4.3 (5.7) | Average ratio of thrips caught relative to water treated traps [5, 8]: 3.7 (8.1) | MAC (%) = Minimum Active Concentration to elicit a response from thrips (P < 0.05) [1, 6]: 0.0001% | % Response: percentage of thrips to walk up odour-laden arm [1, 6]: 74.7 (<0.001) %

CCCC(=O)c1ccncc1 [n-Propyl 4-pyridyl ketone]
MAC (%) = Minimum Active Concentration to elicit a response from thrips (P < 0.05) [1, 6]: 100% | % Response: percentage of thrips to walk up odour-laden arm [1, 6]: 54.7 (0.282) % | Behaviour-modifying activity towards Frankliniella occidentalis (in words) [1]: attractant

N#Cc1ccncc1 [4-Cyanopyridine]
Comment (repellant) [1, 9]: Repellant | MAC (%) = Minimum Active Concentration to elicit a response from thrips (P < 0.05) [1, 6]: <100% | % Response: percentage of thrips to walk up odour-laden arm [1, 6]: 38.7 (0.026) % | Behaviour-modifying activity towards Frankliniella occidentalis (in words) [1]: thrips-repellant activity

O=Cc1ccncc1 [4-Formylpyridine]
Comment: concentration above which the compound is repellant ([1]; female Frankliniella occidentalis, Y-tube, no unit in the cell (MAC column is in %)): Repellant > 0.01 | MAC (%) = Minimum Active Concentration to elicit a response from thrips (P < 0.05) [1, 6]: 0.001% | % Response: percentage of thrips to walk up odour-laden arm [1, 6]: 66.7 (0.002) % | Activity towards Frankliniella occidentalis at high concentration ([1]; high concentration): repellant | Activity towards Frankliniella occidentalis at low concentration ([1]; low concentration): attractant

CCCCCCCCCCCCOC(C)=O [dodecyl acetate]
Repellant activity towards Frankliniella occidentalis (literature, alarm pheromones) [4]: repellant activity

CCCCCCCCCCOC(=O)c1ccncc1 [Decyl isonicotinate]
Average ratio of female thrips caught relative to water traps (95% CI) [2]: 14.9 (0.3, 739.5)

CCCOC(=O)c1ccncc1 [n-Propyl isonicotinate]
MAC (%) = Minimum Active Concentration to elicit a response from thrips (P < 0.05) [1, 6]: 0.1% | % Response: percentage of thrips to walk up odour-laden arm [1, 6]: 61.3 (0.026) %
